From the supplement of paper PMC10307832

Assays:
Test in all cases: relative viability (nuclei count vs DMSO), 5 days (fraction); higher = more cells survive
[1] = tested on: NCI-H23
In short: (§1)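 The day after seeding in 1536-well plates, lung cancer cell lines were treated by pin tool with a single drug, or with a fixed anchor-drug dose together with five library-drug doses (not always all listed) in √10 steps. After 5 days, a combined fix-and-stain solution (final 0.05% Triton X-100, 1% formaldehyde, 1 ug/ml Hoechst) was added. Nuclei counted on 4× images gave relative viability as treated counts over vehicle counts, reported as the median of duplicate plates.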

[2] = tested on: HCC-78
In short: as §1

[3] = tested on: RERF-LC-KJ
In short: as §1

[4] = tested on: EKVX
In short: as §1

[5] = tested on: EPLC-272H
In short: as §1

[6] = tested on: LU99A
In short: as §1

[7] = tested on: LK-2
In short: as §1

[8] = tested on: HCC-827
In short: as §1

[9] = tested on: PC-14
In short: as §1

[10] = tested on: SW 1573
In short: as §1

[11] = tested on: NCI-H2405
In short: as §1

[12] = tested on: SK-LU-1
In short: as §1

[13] = tested on: NCI-H2126
In short: as §1

[14] = tested on: NCI-H322M
In short: as §1

[15] = tested on: NCI-H1563
In short: as §1

[16] = tested on: NCI-H1666
In short: as §1

[17] = tested on: EMC-BAC-2
In short: as §1

[18] = tested on: NCI-H1975
In short: as §1

[19] = tested on: LCLC-103H
In short: as §1

## COc1cc2nccc(Oc3ccc(NC(=O)Nc4cc(C)on4)c(Cl)c3)c2cc1OC [Tivozanib] + C[C@]1(O)C[C@@H](c2nc(-c3ccc4ccc(-c5ccccc5)nc4c3)c3c(N)nccn32)C1 [Linsitinib] (partner 1 µM)
[1]; first compound 0.005 µM
  relative viability: 0.521
[1]; first compound 0.01581 µM
  relative viability: 0.534
[1]; first compound 0.05 µM
  relative viability: 0.64
[1]; first compound 0.1581 µM
  relative viability: 0.317
[1]; first compound 0.5 µM
  relative viability: 0.534
[2]; first compound 0.005 µM
  relative viability: 0.53
[2]; first compound 0.01581 µM
  relative viability: 0.492
[2]; first compound 0.05 µM
  relative viability: 0.437
[2]; first compound 0.1581 µM
  relative viability: 0.415
[2]; first compound 0.5 µM
  relative viability: 0.451
[3]; first compound 0.005 µM
  relative viability: 0.828
[3]; first compound 0.01581 µM
  relative viability: 0.855
[3]; first compound 0.05 µM
  relative viability: 0.901
[3]; first compound 0.1581 µM
  relative viability: 0.92
[3]; first compound 0.5 µM
  relative viability: 0.88
[4]; first compound 0.005 µM
  relative viability: 0.95
[4]; first compound 0.01581 µM
  relative viability: 0.931
[4]; first compound 0.05 µM
  relative viability: 1.07
[4]; first compound 0.1581 µM
  relative viability: 1.07
[4]; first compound 0.5 µM
  relative viability: 1.09
[5]; first compound 0.005 µM
  relative viability: 1.1
[5]; first compound 0.01581 µM
  relative viability: 1.14
[5]; first compound 0.05 µM
  relative viability: 1.17
[5]; first compound 0.1581 µM
  relative viability: 0.955
[5]; first compound 0.5 µM
  relative viability: 1.12
[6]; first compound 0.005 µM
  relative viability: 0.517
[6]; first compound 0.01581 µM
  relative viability: 0.506
[6]; first compound 0.05 µM
  relative viability: 0.581
[6]; first compound 0.5 µM
  relative viability: 0.534
[7]; first compound 0.005 µM
  relative viability: 0.521
[7]; first compound 0.01581 µM
  relative viability: 0.616
[7]; first compound 0.05 µM
  relative viability: 0.49
[7]; first compound 0.1581 µM
  relative viability: 0.601
[7]; first compound 0.5 µM
  relative viability: 0.393
[8]; first compound 0.005 µM
  relative viability: 0.969
[8]; first compound 0.01581 µM
  relative viability: 0.942
[8]; first compound 0.05 µM
  relative viability: 0.944
[8]; first compound 0.1581 µM
  relative viability: 1.04
[8]; first compound 0.5 µM
  relative viability: 0.965
[9]; first compound 0.005 µM
  relative viability: 0.939
[9]; first compound 0.01581 µM
  relative viability: 0.957
[9]; first compound 0.05 µM
  relative viability: 1.06
[9]; first compound 0.1581 µM
  relative viability: 1.01
[9]; first compound 0.5 µM
  relative viability: 1.01
[10]; first compound 0.005 µM
  relative viability: 0.896
[10]; first compound 0.01581 µM
  relative viability: 0.826
[10]; first compound 0.05 µM
  relative viability: 0.921
[10]; first compound 0.1581 µM
  relative viability: 0.819
[10]; first compound 0.5 µM
  relative viability: 0.86
[11]; first compound 0.005 µM
  relative viability: 0.945
[11]; first compound 0.01581 µM
  relative viability: 0.996
[11]; first compound 0.05 µM
  relative viability: 0.943
[11]; first compound 0.1581 µM
  relative viability: 0.89
[11]; first compound 0.5 µM
  relative viability: 0.897
[12]; first compound 0.005 µM
  relative viability: 0.979
[12]; first compound 0.01581 µM
  relative viability: 1.08
[12]; first compound 0.05 µM
  relative viability: 1.34
[12]; first compound 0.1581 µM
  relative viability: 0.813
[12]; first compound 0.5 µM
  relative viability: 0.938
[13]; first compound 0.005 µM
  relative viability: 0.651
[13]; first compound 0.01581 µM
  relative viability: 0.697
[13]; first compound 0.05 µM
  relative viability: 0.734
[13]; first compound 0.1581 µM
  relative viability: 0.52
[13]; first compound 0.5 µM
  relative viability: 0.747
[14]; first compound 0.005 µM
  relative viability: 0.942
[14]; first compound 0.01581 µM
  relative viability: 0.961
[14]; first compound 0.05 µM
  relative viability: 0.989
[14]; first compound 0.1581 µM
  relative viability: 0.92
[14]; first compound 0.5 µM
  relative viability: 0.825
[15]; first compound 0.005 µM
  relative viability: 1.19
[15]; first compound 0.01581 µM
  relative viability: 1.32
[15]; first compound 0.05 µM
  relative viability: 1.24
[15]; first compound 0.1581 µM
  relative viability: 1.12
[15]; first compound 0.5 µM
  relative viability: 1.22
[16]; first compound 0.005 µM
  relative viability: 0.748
[16]; first compound 0.01581 µM
  relative viability: 0.856
[16]; first compound 0.05 µM
  relative viability: 0.975
[16]; first compound 0.1581 µM
  relative viability: 0.783
[16]; first compound 0.5 µM
  relative viability: 0.876
[17]; first compound 0.005 µM
  relative viability: 0.847
[17]; first compound 0.01581 µM
  relative viability: 0.787
[17]; first compound 0.05 µM
  relative viability: 0.844
[17]; first compound 0.1581 µM
  relative viability: 0.782
[17]; first compound 0.5 µM
  relative viability: 0.821
[18]; first compound 0.005 µM
  relative viability: 0.976
[18]; first compound 0.01581 µM
  relative viability: 0.893
[18]; first compound 0.05 µM
  relative viability: 0.956
[18]; first compound 0.1581 µM
  relative viability: 0.784
[18]; first compound 0.5 µM
  relative viability: 0.916
[19]; first compound 0.005 µM
  relative viability: 1.01
[19]; first compound 0.01581 µM
  relative viability: 0.959
[19]; first compound 0.05 µM
  relative viability: 1.07
[19]; first compound 0.1581 µM
  relative viability: 1.21
[19]; first compound 0.5 µM
  relative viability: 1.12
